Data on one compound can be found in patent US20210113602A1, “USE OF 6-THIO-2'-DEOXYGUANOSINE (6-THIO-dG) TO TREAT MELANOMA” (The Board of Regents of the University of Texas System, priority 2018, published 2021).

Data set [1] concerns NRAS mutant melanoma cells. Nature of the data set: Mitochondrial ROS, MitoSox Red. To be noted: 1 μM 6-thio-dG for 7 days. It counts as cell-based, human. How it is done:
FIGS. 3a-g. Telomere dysfunction enhances oxidative stress leading to upregulation of an antioxidant program. (FIGS. 3a-d) NRASmut melanoma cells were transduced with TERT shRNA (FIG. 3a, FIG. 3c) or treated with 1 μM 6-thio-dG for 7 days (FIG. 3b, FIG. 3d). mRNA levels of the indicated genes were quantified by qRT-PCR (FIG. 3a, FIG. 3b). Mitochondrial superoxide production was measured by MitoSox Red fluorescence (FIG. 3c, FIG. 3d) and expressed as fluorescence relative to vector or DMSO controls. (FIG. 3e) NRASmut melanoma cells were treated with 1 μM of 6-thio-dG for the indicated times and SOD2 protein levels measured by Western blotting. (FIG. 3f) SOD2 was silenced using shRNA. Transduced M93-047 cells were treated with DMSO or 1 μM of 6-thio-dG and cell death was assessed by Annexin V/PI straining. (FIG. 3g) M93-047 cells were transduced with a SOD2 lentiviral construct or empty vector control (pLX304). Transduced cells were treated with increasing doses (1, 2.5 and 5 μM) of 6-thio-dG for 7 days and cell death was assessed. […]
FIGS. 4a-e. […] Cell death was assessed by Annexin V and PI staining. […] Cells were stained with Annexin V and PI and percent cell death was determined by flow cytometry. (FIGS. 4c-e) Cells were treated as in FIG. 4b and mitochondrial ROS levels were measured using Mitosox Red by FACS. […] P values were calculated using unpaired Student's t-test; * p<0.05; ***p<0.005. […]

The subject of a further data set is KRAS mutant A549 cells. Kind of data set: Cell death, Annexin V/PI. It is filed as cell-based, human. The settings on record: 1 μM 6-thio-dG, 5 μM Gam.
Data set [2] relates to non-transformed primary human fibroblasts. Nature of the data set: Cell viability, Alamar Blue assay. It counts as cell-based. The settings on record: 7 days; telomerase negative cells. The procedure:
(§1) FIGS. 2a-h. […] (FIGS. 2a-c) NRASmut melanoma cells (FIG. 2a), BRAF-V600E/NRAS mutant cells derived from melanoma patients resistant to BRAF/MEK inhibitors (FIG. 2b), or non-transformed melanocytes and fibroblasts (FIG. 2c) were treated with 6-thio-dG for 7 days. Cell viability was measured by Alamar Blue assay and calculated relative to DMSO-treated cells. (FIG. 2d) NRASmut melanoma cells and non-transformed human fibroblasts were treated with 1 or 5 μM 6-thio-dG for 7 or 14 days. Cell death was assessed by PSVUe staining. Percent of apoptotic cells is shown. (FIG. 2e) Cells were treated with DMSO or 1 μM 6-thio-dG for 14 days and telomere length was assessed by Southern blotting of TRF. Mean TRF length expressed as kilobase pairs is indicated at the bottom. (FIGS. 2f-g) Cells were treated with 1 μM 6-thio-dG for 7 days. (FIG. 2f) ROS production was measured by H2DCFDA fluorescence and normalized to MSO treated cells. (FIG. 2g) DNA damage was assessed by γH2AX staining. […] Tumor volume was measured and average tumor volume (n=4)±SEM was plotted vs. time.
(§2) Cell culture, viability and cell death assays. […] Cell viability was assessed following 6 hr incubation with 500 μM Alamar Blue (ThermoFisher Scientific, Waltham, Mass.) using an EnVision Xcite Multilabel plate reader (Perkin Elmer, Waltham, Mass.). […]
On the technique in general: The colour change of resazurin is a common sign of viable cells or microbes.

The subject of data set [3] is non-transformed primary human melanocytes. Kind of data set: Cell viability, Alamar Blue assay. The settings on record: 7 days; telomerase negative cells. It counts as cell-based. The procedure: as §1, §2
Data set [4] relates to NRAS mutant melanoma cells. Kind of data set: ROS production, H2DCFDA fluorescence. It counts as cell-based, human. To be noted: 1 μM for 7 days. How it is done: FIGS. 2a-h. […] (FIGS. 2a-c) NRASmut melanoma cells (FIG. 2a), BRAF-V600E/NRAS mutant cells derived from melanoma patients resistant to BRAF/MEK inhibitors (FIG. 2b), or non-transformed melanocytes and fibroblasts (FIG. 2c) were treated with 6-thio-dG for 7 days. Cell viability was measured by Alamar Blue assay and calculated relative to DMSO-treated cells. (FIG. 2d) NRASmut melanoma cells and non-transformed human fibroblasts were treated with 1 or 5 μM 6-thio-dG for 7 or 14 days. Cell death was assessed by PSVUe staining. Percent of apoptotic cells is shown. (FIG. 2e) Cells were treated with DMSO or 1 μM 6-thio-dG for 14 days and telomere length was assessed by Southern blotting of TRF. Mean TRF length expressed as kilobase pairs is indicated at the bottom. (FIGS. 2f-g) Cells were treated with 1 μM 6-thio-dG for 7 days. (FIG. 2f) ROS production was measured by H2DCFDA fluorescence and normalized to MSO treated cells. (FIG. 2g) DNA damage was assessed by γH2AX staining. Data represent average from three independent experiments±SEM. *p<0.05; **p<0.01; ***p<0.005 in unpaired Student's t-test. […] Tumor volume was measured and average tumor volume (n=4)±SEM was plotted vs. time.
Measurement of reactive oxygen species. General or mitochondrial specific ROS were measured by flow cytometry H2DCFDA or MitoSoxRed (Invitrogen, Waltham, Mass.) following manufacturer's specifications.

For data set [5] the following is noted: in mice; cited from earlier work.
Data set [6] deals with NRAS-WT/BRAF-WT melanoma cells. Kind of data set: Cell death, Annexin V/PI. It is filed as cell-based, human. The settings on record: single agents or combination; 1 μM 6-thio-dG, 5 μM Gam.
The next data set relates to KRAS mutant HCT116 cells. Kind of data set: Cell death, Annexin V/PI. It is filed as cell-based, human. To be noted: 1 μM 6-thio-dG, 5 μM Gam.

Molecules are shown by their SMILES.

`Nc1nc2c(ncn2[C@H]2C[C@H](O)[C@@H](CO)O2)c(=S)[nH]1` [6-thio-dG, 6-thio-2′-deoxy-guanosine]: the “mitochondrial ROS levels” value in data set [1] is reported as “increased mitochondrial ROS levels”. Moreover, in the data set with KRAS mutant A549 cells, the cell death result is given as “did not induce substantial death”. Moreover, the cell viability entry in data set [2] is given as “did not significantly affect”. The cell viability result in data set [3] is reported as “did not significantly affect”. Besides, the ROS levels entry in data set [4] is reported as “increased levels”. Also, in data set [5], the “alanine aminotransferase (ALT)” value is reported as “no significant effects”, the “aspartate aminotransferase (AST)” value is recorded as “no significant effects”, the creatinine levels result is reported as “no significant effects” and the red blood cells entry was “no significant effects”. Also, the white blood cells entry in data set [5] was “no significant effects”. Besides, the cell death result in data set [6] is “did not induce cell death”. The cell death entry in the data set with KRAS mutant HCT116 cells is reported as “did not induce substantial death”.
